{"source": "patent US12239713B2", "about": "“Degradable polyethylene glycol conjugate” (NOF CORPORATION, priority 2018, dated 2025)", "system": "blood calcium concentration", "experiment": "Evaluation of physiological activity of PEGylated salmon calcitonin (blood calcium concentration)", "type": "in vivo, Mouse Balb/c", "details": "sCT dose 40 μg/kg, blood at 1, 3, 6, 24 hr, compared to saline (PBS) group, FIG. 10", "experimental": "The method for evaluating the physiological activity of a bio-related substance bonded to a degradable polyethylene glycol derivative is not particular limited. For example, when the bio-related substance is insulin, blood sugar concentration is measured, and when it is calcitonin, blood calcium concentration is measured, by periodically collecting blood from the animal that received administration and measuring the substance in the blood by using an appropriate analytical instrument, and the like, based on which the evaluation can be performed. Specifically, in the case of insulin, a glucose measurement kit is used to monitor a decrease in glucose concentration after administration and, in the case of calcitonin, a decrease in calcium concentration after administration is monitored using a calcium measurement kit, based on which the evaluation can be performed.\nThe physiological activities of 4 groups of ME-200GLFG (SEQ ID NO: 4) (L)-200-sCT which is SCT to which degradable polyethylene glycol derivative with a molecular weight of 40,000 is bonded and obtained in Example 16, methoxy PEG 40 kDa-sCT bonded to nondegradable methoxy PEG 40 kDa, unmodified sCT, and saline were comparatively evaluated in animal experiments. […]", "note": "Where no end group is shown, it is not given here.", "data": [{"substance": "salmon calcitonin (CSNLSTCVLGKLSQELHKLQTYPRTNTGSGTP; ends and bridges not checked; cysteine pairing not given here) [Unmodified sCT]", "values": [{"measurement": "calcium concentration in blood (in words)", "result": "showed an increase in calcium concentration 6 hr after administration"}]}]}
